Laboratory results from US8551951B2, “Pharmaceutical preparations and methods for inhibiting tumors” (Aenorasis SA Pharmaceuticals and Medical Devices, priority 2000, dated 2013).

How the values were obtained:
Mat Ly Lu (MLL) tumor [1] = test: Study MLL-1, Mat LyLu tumor implanted in nude mice; type: in vivo; details: Doxorubicin 5 mg/kg i.v. single bolus on day 3; p=0.006
Method: (§1) Studies MLL-1 and MLL-2 were performed as follows; on day 0, male Copenhagen rats were injected subcutaneously with 5×10^5 Mat LyLu cells per rat. These cells were derived from cultures of Mat LyLu cell line grown in RPMI media containing 10% (v/v) of fetal calf serum in logarithmic phase of growth. Cells were harvested from the culture flasks by trypsinization, were centrifuged at 1200 rotation per minute (rpm) and washed three timed with Hanks balanced salt solution (HBSS). Following washing, cells were counted and adjusted to a concentration of 5×10^6 cells/ml in HBSS. A 0.1 ml volume of tumor cell inoculum containing 5×10^5 cells was administered subcutaneously into the flank region of each rat. Three days after tumor cell implantation (i.e., inoculation), animals were treated daily by a subcutaneous injection of the desired polypeptide until day 13.
Experiments illustrated in FIG. 12 show the anti-tumor efficacy validation of rHuPSP94 against Mat LyLu (MLL) tumor implanted in nude mice (Protocol based on S. Garde et al.; The Prostate, 22: 225-233, 1993).
For study MLL-1 (FIG. 12), tumor-implanted nude mice were separated in different groups, each receiving various amount of rHuPSP94 or control reagents. The different groups used in these experiments are illustrated below. Each group contained 8 mice.

PC-3 cells = test: DNA fragmentation assay (DNA ladder, apoptosis); type: cell-based, human
Method: Cell apoptosis result in DNA fragmentation can be evaluated by the presence of a DNA ladder visualized when DNA is run on a 1.2% agarose gel. DNA ladder assay (apoptosis assay) was performed following exposure of PC-3 to various concentrations of the polypeptides for 72 hours. The polypeptides that were used in this particular experiment are polypeptide 7-21 (SEQ ID NO: 4), polypeptide PCK3145 (SEQ ID NO: 5) and polypeptide 76-94 (SEQ ID NO: 6). […] This effect was especially evident following treatment with PCK3145 (SEQ ID NO: 5), which is illustrated by FIG. 7. Lane 1 of the gel illustrated in FIG. 7 represents a lambda HindIII digest standard.
Apoptosis of PC-3 cells, following a 72 hours exposure to PCK3145 at 500 μg/ml concentration, was evaluated in supplemented media by DNA fragmentation assay. Doxorubicin was used as a reference positive control. Untreated cells and PCK3145-treated cells were harvested and the DNA was isolated. Isolated DNA was run on a 1.2% agarose gel containing Ethidium Bromide (EtBr). […] Lane 1 of the gel illustrated in FIG. 25 represents the DNA marker (100 base pair DNA ladder). Lane 2 of the gel illustrated in FIG. 25 represents a control of untreated PC-3 cells.

Dunning Mat Ly Lu tumors = test: Studies MLL-5 and MLL-6, Mat Ly Lu tumor implanted in Copenhagen rats; type: in vivo; details: Doxorubicin 5000 μg/kg single bolus i.v. on day 3 p.t.i
Method: Anti-tumor efficacy evaluation of PCK3145 against Mat Ly Lu (MLL) tumor implanted in Copenhagen rats was performed. (Protocol based on S. Garde et al.; The Prostate, 22: 225-233, 1993). Mat LyLu tumor cells were harvested in mid-log phase from the culture flasks by trypsinization, were centrifuged at 1200 rotation per minute (rpm) and washed three timed with Hanks balanced salt solution (HBSS). Following washing, cells were counted and adjusted to a concentration of 5×10^6 cells/ml in HBSS. A 0.1 ml volume of tumor cell inoculum containing 5×10^5 cells was administered subcutaneously into the flank region of each rat. Treatment started at day 3 post-tumor implantation (p.t.i) by local subcutaneous injection (i.e., in the shaved back area just below tumor implantation site) of various PCK3145 concentrations. This treatment was continued daily for 16 days. Experiments were terminated 24 hours after the last treatment. Tumor measurements were taken at days 7, 9, 11, 14, 16 and 18. Tumor volumes are calculated according to formula (a×b^2×0.5), where a—is the length of the long diameter, b—width of the perpendicular small diameter. At day 19 tumors of individual rats were excised and weighed.
Study No: MLL-5 illustrates the efficacy of PCK3145 (SEQ ID NO: 5) compared with polypeptide 7-21 (SEQ ID NO: 4) and polypeptide 76-94 (SEQ ID NO: 6) in tumor growth retardation in Copenhagen rats, which have received Mat Ly Lu implants. Mice were separated in different groups, each receiving various amount of PCK3145 (SEQ ID NO: 5) or control reagents. PCK3145 was injected through the subcutaneous route. The different groups used in these experiments are illustrated in table 8 below. Each group contained 8 mice.
Study No: MLL-6 illustrates the efficacy of PCK3145 (SEQ ID NO: 5) in tumor growth retardation in Copenhagen rats, which have received Mat Ly Lu implants. Mice were separated in different group each receiving various amounts of PCK3145 (SEQ ID NO: 5) or control reagents. PCK3145 was injected through the subcutaneous route. The different groups used in these experiments are illustrated in table 9 below. Each group contained 8 mice. Doxorubicin was administered as single bolus via intra-venous injection on day 3 p.t.i.

human PC-3 tumor = test: Studies PC3-6 and PC3-12, human PC-3 prostate cancer nude mouse xenograft model; type: in vivo, nude mice; details: Doxorubicin 10000 μg/kg single bolus i.v. on days 3 and 11 p.t.i
Description: Studies PC3-6 and PC3-12 (FIGS. 26-27) are consecutive group experiments designed to characterize the in vivo activity of PCK3145 in the human PC-3 prostate cancer nude mouse xenograft model and to explore relationships between dose, route and schedule of administration and the efficacy parameters of tumor growth (volume).
PC-3 cells harvested in mid-log phase were inoculated at 5×10^6 cells per mice via the subcutaneous route in the mice's back area. Tumors grown from this inoculum were excised at approximately day 32 to 35 post-tumor implantation (p.t.i) when tumor volume reached 200-300 mm^3 (i.e., cu mm). The necrotic tissue was removed and the viable tumor mass cut into small pieces (approximately 1 to 3 mm^3) were implanted SC in the flank region at two opposite sites of the mouse. Treatment with various concentrations of PCK3145 was initiated at day 3 post-tumor implantation (p.t.i) and was continued daily for 21 days. Subcutaneous injections were done below tumor growth sites. Intra-peritoneal injections were performed in the abdominal region. Intra-venous injections were performed via the lateral tail vein. The experiment was terminated 24 hours after the last treatment. Tumor measurements were taken at Days 11, 14, 16, 18, 20, 22 and 24 post-tumor implantation (p.t.i). Tumor volumes were calculated according to formula (a×b^2×0.5), where a—is the length of the long diameter, and b—is the width of the perpendicular small diameter.
Study No: PC3-6 illustrates the efficacy of PCK3145, injected subcutaneously, in tumor growth retardation in Nude mice, which have received PC-3 implants. Mice were separated in different group each receiving various amounts of PCK3145 (SEQ ID NO: 5) or control reagents. The different groups used in these experiments are illustrated in table 6 below. Each group contained 10 mice. Doxorubicin was administered as single bolus intra-venous injection on days 3 and 11 post-tumor implantation (p.t.i).
Study No: PC3-12 illustrates the efficacy of PCK3145 in tumor growth retardation in Nude mice, which have received PC-3 implants. Mice were separated in different group each receiving various amounts of PCK3145 (SEQ ID NO: 5) or control reagents. PCK3145 was injected either through intra-venous or intra-peritoneal route. The different groups used in these experiments are illustrated in table 7 below. Each group contained 9 mice.

Mat Ly Lu (MLL) tumor [2] = test: Study MLL-2, Mat Ly Lu tumor implanted in SCID mice; type: in vivo; details: Doxorubicin 5 mg/kg i.v. single bolus on day 3; p=0.002
Method: as §1
Experiments illustrated in study MLL-2 show the anti-tumor efficacy validation of rHuPSP94 against Mat Ly Lu (MLL) tumor implanted in severe combined immunodeficiency (SCID) mice (Protocol based on S. Garde et al.; The Prostate, 22: 225-233, 1993).
For study MLL-2 (FIG. 13), tumor-implanted Scid mice were separated in different groups each receiving various amounts of rHuPSP94 or control reagents. The different groups used in these experiments are illustrated below. Each group contained 8 mice.

COc1cccc2c1C(=O)c1c(O)c3c(c(O)c1C2=O)C[C@@](O)(C(=O)CO)C[C@@H]3O[C@H]1C[C@H](N)[C@H](O)[C@H](C)O1 [Doxorubicin, reference compound]
tumor weight reduction (Mat Ly Lu (MLL) tumor [1]): 48% | DNA laddering effect (FIG. 25 lane 3) (PC-3 cells; 2 μg/ml): DNA laddering effect | DNA laddering effect (FIG. 7 lane 2) (PC-3 cells; doxorubicin-treated cells): DNA laddering effect | reduction in tumor volumes, study MLL-6 (Dunning Mat Ly Lu tumors): over 80% | tumor growth (volume), study PC3-6 (human PC-3 tumor): highly significant anti-tumor therapeutic effect | tumor weight reduction (Mat Ly Lu (MLL) tumor [2]): 82%
